Where two headings read alike, the source gives them in different places.
Tested on: NLRepRlucP373S viruses containing Gag SDMs or gag/pr genes from clinical isolates
Assay: Multiple-cycle replication assay, NLRepRluc reporter viruses in MT-2 cells, luciferase endpoint
Type: cell-based, HIV-1
Excerpt: Multiple-cycle assays using recombinant viruses or clinical isolates were used to assess MI antiviral activity as described previously ([10]). pNLRepRlucP373S (the P373S change is in the Gag gene and converts an outlier polymorphism in the NL4-3 gene to the prevalent amino acid in the population) plasmids containing SDMs in Gag or gag/pr regions from clinical isolates were transfected into HEK 293T cells, and the supernatant containing recombinant virus was harvested after 4 to 5 days. Virus was used to infect MT-2 cells in the presence of a 3-fold serially diluted compound at a final dimethyl sulfoxide (DMSO) concentration of 1%. The inocula of the reporter viruses were determined based on the luciferase activity detected on day 4 postinfection. The MOI (ratio of infectious virions to target cells) of reporter-free laboratory strains and clinical isolates was 0.005, as derived from a tissue culture infectious dose study. Clinical isolates or reporter-free viruses were examined in the reporter CEM-NKR-CCR5-Luc cells or PBMCs at MOIs ranging from 0.005 to 0.01. Each infection started with a drug-free preincubation of the cell-virus mixtures, performed at 37°C and 5% CO2 for either 1 h at 2 times the final cell density (reporter viruses) or 1 h (reporter-free laboratory strains) or 3 h (clinical isolates) using cell pellets in 0.5 mL of medium. After preincubation, cell-virus mixtures were added to compound-containing 96-well plates for a final cell density of either 10,000 (MT-2 cells for reporter viruses), 20,000 (MT-2 and PM1 cells for reporter-free laboratory strains), 200,000 (PBMCs for clinical isolates), or 500,000 (CEM-NKR-CCR5-Luc for reporter-free laboratory strains) cells per well. The CEM-NKR-CCR5-Luc cell assay was performed in the presence of Polybrene (10 μg/mL). Virus growth was determined on days 4 to 5 postinfection for reporter variants or days 5 to 11 for the other viruses. The reporter viruses were detected by a luciferase assay according to manufacturer protocols (Brite-Glo luciferase kit [Promega] for CEM-NKR-CCR5-Luc cells and Dual-Luciferase Reporter 1000 assay system [Promega] for the other cells), and luminescence was detected on a Wallac Trilux. The growth of clinical isolates in PBMCs was quantitated by reverse transcriptase activity in a 96-well scintillation proximity assay (SPA). Twenty microliters of culture supernatants was mixed with 40 μL of reaction cocktail (62.5 mM Tris-HCl [pH 7.8], 100 mM KCl, 0.0625% NP-40, 2.5 mM dithiothreitol [DTT], 6.25 mM MgCl2, 1 mM EGTA, 6.25 μg/mL of poly rA, 2.5 μg/mL of streptavidin SPA beads prebound with biotinylated-dT12-18, and 1 μCi of [^3H]TTP). Mixtures were incubated at 37°C for ∼3 h and quenched with 100 μl of 0.25 M EDTA per well. Luminescence was detected on a Wallac Trilux programmed for tritium counting with SPA beads in opaque plates. The growth of the reporter-free laboratory M-tropic strains and clinical isolates was monitored by a p24 enzyme-linked immunosorbent assay (ELISA; PerkinElmer Life Sciences, Waltham, MA) performed on culture supernatants. […] A 1:1,000 dilution of cell supernatant in PBS was generally observed to fall in the dynamic range of the endpoint signal.
Maximal percent inhibition values were calculated as MPI = 100 – (mean signals at the 2 highest concentrations of compound/mean signal of 2 no-drug control wells) × 100.

[1] = Human immunodeficiency virus 1, MT2, V370A, 10% FBS
[2] = Human immunodeficiency virus 1, MT2, Wild type, 10% FBS

Question: What does the source list for `C=C(C)[C@@H]1CC[C@]2(NCCN3CCS(=O)(=O)CC3)CC[C@]3(C)[C@H](CC[C@@H]4[C@@]5(C)CC=C(C6=CC[C@@](CF)(C(=O)O)CC6)C(C)(C)[C@@H]5CC[C@]43C)[C@@H]12` [GSK’254]?
Answer: MPI (A366V-containing viruses): −86 to 400%; EC50 (Human immunodeficiency virus 1, MT2, 92BR018-genotyped NLRepRlucP373S virus): 1 nM; EC50 (Human immunodeficiency virus 1, MT2, 93BR008-genotyped NLRepRlucP373S virus): 2 nM; EC50 (Human immunodeficiency virus 1, MT2, R361K/V362I/L363M): 3 nM; EC50 (Human immunodeficiency virus 1, MT2, Table S1, SDM R361K/V362I/L363M): 3 nM; EC50 (Human immunodeficiency virus 1, MT2, Table S1, SDM S368R/V370A): 1 nM; EC50 (Human immunodeficiency virus 1, MT2, Table S1, SDM V362I/V370A): 3 nM; EC50 (Human immunodeficiency virus 1, MT2, Table S1, SDM V370A): 2 nM; EC50 (Human immunodeficiency virus 1, MT2, Table S1, SDM V370A/ΔT371): 3 nM; EC50 (Human immunodeficiency virus 1, MT2, Table S1, SDM ΔV370): 3 nM; EC50 (Human immunodeficiency virus 1, MT2, Table S1, subtype B SDM Wild-type (V, QVT)): 3 nM; EC50 (Human immunodeficiency virus 1, MT2, V362I/V370A): 3 nM; EC50 [1]: 1.5 nM; EC90 [1]: 3 nM; EC50 [2]: 1.4 nM; EC90 [2]: 3.6 nM; EC50 (Human immunodeficiency virus 1, MT2, read-out: EC50 (range), Subtype B gag/pr viruses, n=24): 0.5 to 7 nM; EC50 (Human immunodeficiency virus 1, MT2, read-out: EC50 (range), Subtype C gag/pr viruses, n=11): 1 to 2 nM; EC50 (Human immunodeficiency virus 1, MT2, read-out: EC50 (range), V362I only viruses, n=9): 1 to 7 nM; EC50 (Human immunodeficiency virus 1, MT2, read-out: EC50 (range), Wild-type subtype B, n=5): 0.5 to 2 nM; EC50 (Human immunodeficiency virus 1, MT2, read-out: Mean ± SD EC50, A366V-containing viruses (A366V, V362I/A366V, V362I/A366V/V370M, A366V/V370M)): > 3000 nM; EC50 (Human immunodeficiency virus 1, MT2, read-out: Mean ± SD EC50, SDM A326T/V362I/V370A): 26 ± 70 nM; EC50 (Human immunodeficiency virus 1, MT2, read-out: Mean ± SD EC50, SDM A364V): 274 ± 505 nM; EC50 (Human immunodeficiency virus 1, MT2, read-out: Mean ± SD EC50, SDM R361K/V362I/L363M): 3 ± 1 nM; EC50 (Human immunodeficiency virus 1, MT2, read-out: Mean ± SD EC50, SDM T332S/V362I/prR41G): 7 ± 4 nM; EC50 (Human immunodeficiency virus 1, MT2, read-out: Mean ± SD EC50, SDM V362I/V370A): 3 ± 1 nM; EC50 (Human immunodeficiency virus 1, MT2, read-out: Mean ± SD EC50, SDM V370A): 2 ± 1 nM; EC50 (Human immunodeficiency virus 1, MT2, read-out: Mean ± SD EC50, SDM Wild type): 3 ± 2 nM; EC50 (Human immunodeficiency virus 1, MT2, read-out: Mean ± SD EC50, SDM ΔV370): 3 ± 1 nM; EC50 (Human immunodeficiency virus 1, MT2, read-out: Mean ± SD EC50, Subtype B gag/pr viruses, n=24): 1.9 ± 1.5 nM; EC50 (Human immunodeficiency virus 1, MT2, read-out: Mean ± SD EC50, Subtype C gag/pr viruses, n=11): 1.2 ± 0.4 nM; EC50 (Human immunodeficiency virus 1, MT2, read-out: Mean ± SD EC50, V362I only viruses, n=9): 2.7 ± 2 nM; EC50 (Human immunodeficiency virus 1, MT2, read-out: Mean ± SD EC50, V362I/ΔV370 virus, n=1): 3 nM; EC50 (Human immunodeficiency virus 1, MT2, read-out: Mean ± SD EC50, Wild-type subtype B (V362, Q369, V370, T371), n=5): 1.1 ± 0.5 nM; EC50 (Human immunodeficiency virus 1, MT2, read-out: Median EC50, Subtype B gag/pr viruses, n=24): 1 nM; EC50 (Human immunodeficiency virus 1, MT2, read-out: Median EC50, Subtype C gag/pr viruses, n=11): 1 nM; EC50 (Human immunodeficiency virus 1, MT2, read-out: Median EC50, V362I only viruses, n=9): 2 nM; EC50 (Human immunodeficiency virus 1, MT2, read-out: Median EC50, Wild-type subtype B, n=5): 1 nM; EC90 (Human immunodeficiency virus 1, MT2, read-out: PBA EC90, Table S1, SDM A326T/V362I/V370A): 117 nM; EC90 (Human immunodeficiency virus 1, MT2, read-out: PBA EC90, Table S1, SDM R361K/V362I/L363M): 50 nM; EC90 (Human immunodeficiency virus 1, MT2, read-out: PBA EC90, Table S1, SDM S368R/V370A): 9 nM; EC90 (Human immunodeficiency virus 1, MT2, read-out: PBA EC90, Table S1, SDM T332S/V362I/PrR41G): 77 nM; EC90 (Human immunodeficiency virus 1, MT2, read-out: PBA EC90, Table S1, SDM V362I/V370A): 18 nM; EC90 (Human immunodeficiency virus 1, MT2, read-out: PBA EC90, Table S1, SDM V370A): 21 nM; EC90 (Human immunodeficiency virus 1, MT2, read-out: PBA EC90, Table S1, SDM V370A/ΔT371): 40 nM; EC90 (Human immunodeficiency virus 1, MT2, read-out: PBA EC90, Table S1, SDM ΔV370): 57 nM; EC90 (Human immunodeficiency virus 1, MT2, read-out: PBA EC90, Table S1, subtype B SDM Wild-type (V, QVT)): 24 nM; EC90 (Human immunodeficiency virus 1, MT2, read-out: PBA EC90, subtype B gag/pr 4NRR (Wild-type)): 25 nM; EC90 (Human immunodeficiency virus 1, MT2, read-out: PBA EC90, subtype B gag/pr 28-MDR (Wild-type)): 37 nM; EC90 (Human immunodeficiency virus 1, MT2, read-out: PBA EC90, subtype B gag/pr 92BR014 (V370M)): 11 nM; EC90 (Human immunodeficiency virus 1, MT2, read-out: PBA EC90, subtype B gag/pr 92BR018 (V, QAΔ)): 26 nM; EC90 (Human immunodeficiency virus 1, MT2, read-out: PBA EC90, subtype B gag/pr 92TH014 (V362I)): 12 nM; EC90 (Human immunodeficiency virus 1, MT2, read-out: PBA EC90, subtype B gag/pr 92TH026 (V362I)): 32 nM; EC90 (Human immunodeficiency virus 1, MT2, read-out: PBA EC90, subtype B gag/pr 92US072 (V362I)): 21 nM; EC90 (Human immunodeficiency virus 1, MT2, read-out: PBA EC90, subtype B gag/pr 92US729 (Wild-type)): 13 nM; EC90 (Human immunodeficiency virus 1, MT2, read-out: PBA EC90, subtype B gag/pr 93BR008 (V362I)): 30 nM; EC90 (Human immunodeficiency virus 1, MT2, read-out: PBA EC90, subtype B gag/pr 93BR017 (V, QAΔ)): 20 nM; EC90 (Human immunodeficiency virus 1, MT2, read-out: PBA EC90, subtype B gag/pr 93BR022 (V, QAΔ)): 28 nM; EC90 (Human immunodeficiency virus 1, MT2, read-out: PBA EC90, subtype B gag/pr 93BR024 (V362I)): 180 nM; EC90 (Human immunodeficiency virus 1, MT2, read-out: PBA EC90, subtype B gag/pr 93TH0647 (V362I)): 23 nM; EC90 (Human immunodeficiency virus 1, MT2, read-out: PBA EC90, subtype B gag/pr 93US141 (V362I)): 37 nM

Source: PMC8765437, “GSK3640254 Is a Novel HIV-1 Maturation Inhibitor with an Optimized Virology Profile” (Antimicrobial Agents and Chemotherapy, 2022)
